Measurements taken from US8501981B2, “CXCR2 inhibitors” (SANOFI, priority 2006, dated 2013).

Target: human CXCR2 (Homo sapiens (Human), UniProt P25025)
Experiment: Determination of CXCR2 inhibition: Calcium Fluorescence Assay (FLIPR)
Type: cell-based
Details: chemokine IL-8; CHO-K1 cells stably transfected with human CXCR2 and Gα16
Source text: Determination of CXCR2 inhibition: Calcium Fluorescence Assay (FLIPR)
The assay is based on the detection of intracellular calcium changes detected by the selective, calcium-chelating dye, Fluo-4 (Molecular Probes). A large fluorescence intensity increase is observed upon calcium association with Fluo-4. […] By co-expressing the CXCR2 receptor and the promiscuous Gα16 protein, activation of this chemokine receptor is directed into this phospholipase C cascade resulting in intracellular calcium mobilization.
The CHO—K1 cells stably transfected with human CXCR2 and the promiscuous Gα16 protein were maintained in a log phase of growth at 37° C. and 5% CO2 in the following media: Iscove's, 10% FBS, 1× Penicillin-Streptomycin, 400 μg/mL g418 and 350 μg/mL Zeocin. Approximately 24-48 hours prior to the assay, 20,000-30,000 cells/well were plated onto a 96-well black/clear bottomed assay plate (Becton Dickinson) with a well volume of 180 μl. For dye-loading the culture medium was carefully removed and replaced by 100 μl/well dye solution (4 μM Fluo-4 in 135 mM NaCl, 5 mM KCl, 1 mM magnesium sulphate, 5 mM glucose, 20 mM hepes, 2.5 mM probenecid; pH 7.4). Cells were incubated for 1 h at 37° C., and then washed 3× with buffer. After washing 90 μl buffer/well were left. Increasing concentrations of compound was added in 45 μl buffer (4× concentrated) followed by 10 min incubation at 37° C. Then the chemokine (10-100 nM) was applied in 45 μl buffer (4× concentrated) and the measurement performed for 2 min. The IC50 value of a compound was determined by calculation of % inhibition of total calcium response to the chemokine.

human CXCR2, sequence (P25025 whole entry): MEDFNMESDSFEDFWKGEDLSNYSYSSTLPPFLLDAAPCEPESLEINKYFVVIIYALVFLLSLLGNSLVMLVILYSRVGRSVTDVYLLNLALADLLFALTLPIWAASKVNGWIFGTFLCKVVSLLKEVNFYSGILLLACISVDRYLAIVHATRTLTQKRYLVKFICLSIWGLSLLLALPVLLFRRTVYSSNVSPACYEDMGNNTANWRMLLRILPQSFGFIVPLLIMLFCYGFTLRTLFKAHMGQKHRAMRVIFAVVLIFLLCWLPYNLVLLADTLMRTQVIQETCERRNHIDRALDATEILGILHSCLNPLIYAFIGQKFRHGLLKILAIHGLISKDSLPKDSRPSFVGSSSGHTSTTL

IC50 | SMILES
< 10 µM | CCCCC(CC)(NC(=O)c1ccc2ccccc2c1OCCCc1ccccc1)C(=O)O (centres unmarked) [Example 116, 2-Ethyl-2-{[1-(3-phenyl-propoxy)-naphthalene-2-carbonyl]-amino}-hexanoic acid]
< 10 µM | O=C(NC1(C(=O)O)CCC1)c1ccc2ccccc2c1OCCOc1ccccc1 [Example 100]
< 10 µM | CC(C)(NC(=O)c1ccc2ccccc2c1OCCc1ccccc1)C(=O)O [Example 126, 2-Methyl-2-[(1-phenethyloxy-naphthalene-2-carbonyl)-amino]-propionic acid]
1.76 µM | CC(C)(NC(=O)c1sc2ccccc2c1OCCOc1ccccc1)C(=O)O [Example 46, 2-Methyl-2-{[3-(2-phenoxy-ethoxy)-benzo[b]thiophene-2-carbonyl]-amino}-propionic acid]
< 10 µM | CC(C)(NC(=O)c1cc(F)c2ccccc2c1OCCc1ccccc1)C(=O)O [Example 17, 2-[(4-Fluoro-1-phenethyloxy-naphthalene-2-carbonyl)-amino]-2-methyl-propionic acid]
< 10 µM | C[C@@H](NC(=O)c1ccc2ccccc2c1OCCc1ccc(F)cc1)C(=O)O [Example 130, (R)-2-({1-[2-(4-Fluoro-phenyl)-ethoxy]-naphthalene-2-carbonyl}-amino)-propionic acid]
< 10 µM | CC(C)(NC(=O)c1ccc2ccccc2c1OCCCc1ccc(Cl)cc1)C(=O)O [Example 106, 2-({1-[3-(4-Chloro-phenyl)-propoxy]-naphthalene-2-carbonyl}-amino)-2-methyl-propionic acid]
0.92 µM | CC(CCc1ccccc1)Oc1c(C(=O)NC2(C(=O)O)CCCC2)ccc2ccccc12 (centres unmarked) [Example 52, 1-{[1-(1-Methyl-3-phenyl-propoxy)-naphthalene-2-carbonyl]-amino}-cyclopentanecarboxylic acid]
< 10 µM | O=C(NC1(C(=O)O)CCC1)c1ccc2ccccc2c1OCCC1CCCCC1 [Example 97, 1-{[1-(2-Cyclohexyl-ethoxy)-naphthalene-2-carbonyl]-amino}-cyclobutanecarboxylic acid]
3.23 µM | O=C(NC1(C(=O)O)CCC1)c1ccc2ccccc2c1OCCOc1ccc(F)cc1 [Example 105, 1-({1-[2-(4-Fluoro-phenoxy)-ethoxy]-naphthalene-2-carbonyl}-amino)-cyclobutanecarboxylic acid]
< 10 µM | CCCCC(CC)(NC(=O)c1ccc2ccccc2c1OCCOc1ccccc1)C(=O)O (centres unmarked) [Example 117, 2-Ethyl-2-{[1-(2-phenoxy-ethoxy)-naphthalene-2-carbonyl]-amino}-hexanoic acid]
1.25 µM | CC(C)(NC(=O)c1ccc2ccccc2c1OCCOc1ccc(F)c(Cl)c1)C(=O)O [Example 73, 2-({1-[2-(3-Chloro-4-fluoro-phenoxy)-ethoxy]-naphthalene-2-carbonyl}-amino)-2-methyl-propionic acid]
1.67 µM | CC(C)(NC(=O)c1ccc2ccccc2c1C#CCCCc1ccccc1)C(=O)O [Example 166, 2-Methyl-2-{[1-(5-phenyl-pent-1-ynyl)-naphthalene-2-carbonyl]-amino}-propionic acid]
2.56 µM | CC(C)CC(C)(NC(=O)c1ccc2ccccc2c1OCCOc1ccccc1)C(=O)O (centres unmarked) [Example 55, 2,4-Dimethyl-2-{[1-(2-phenoxy-ethoxy)-naphthalene-2-carbonyl]-amino}-pentanoic acid]
< 10 µM | CC(C)(NC(=O)c1cc(F)c2ccccc2c1OCCOc1ccccc1)C(=O)O [Example 20, 2-{[4-Fluoro-1-(2-phenoxy-ethoxy)-naphthalene-2-carbonyl]-amino}-2-methyl-propionic acid]
< 10 µM | CC(C)(NC(=O)c1cc(F)c2ccccc2c1OCCCc1ccccc1)C(=O)O [Example 18, 2-{[4-Fluoro-1-(3-phenyl-propoxy)-naphthalene-2-carbonyl]-amino}-2-methyl-propionic acid]
< 10 µM | O=C(NC1(C(=O)O)CCC1)c1ccc2ccccc2c1OCCCc1ccccc1 [Example 99, 1-{[1-(3-Phenyl-propoxy)-naphthalene-2-carbonyl]-amino}-cyclobutanecarboxylic acid]
< 10 µM | CC(CCc1ccccc1)Oc1c(C(=O)NC(C)(C)C(=O)O)ccc2ccccc12 (centres unmarked) [Example 140, 2-Methyl-2-{[1-(1-methyl-3-phenyl-propoxy)-naphthalene-2-carbonyl]-amino}-propionic acid]
< 10 µM | CC(C)(NC(=O)c1ccc2ccccc2c1C#CCOc1ccccc1)C(=O)O [Example 165, 2-Methyl-2-{[1-(3-phenoxy-prop-1-ynyl)-naphthalene-2-carbonyl]-amino}-propionic acid]
< 10 µM | CCCCC(CC)(NC(=O)c1ccc2ccccc2c1OCCCC1CCCCC1)C(=O)O (centres unmarked) [Example 119, 2-{[1-(3-Cyclohexyl-propoxy)-naphthalene-2-carbonyl]-amino}-2-ethyl-hexanoic acid]
